Reference: patent US20220347171A1, “TREATMENT OF PRURIGO NODULARIS” (TREVI THERAPEUTICS, INC., priority 2016, published 2022)
Counter-ions that a name gives are not always drawn.

Assays:
[1] = test system: prurigo nodularis patients; assay: Phase 2 open label extension study (TR03ext, Example 3), titrated 30 mg QD to 180 mg BID, up to 50 weeks: Worst itch NRS; assay type: in vivo, human; conditions: for Worst Itch NRS Visit Mean (SD): Baseline 7.6 (1.6)
Text: (§1) This clinical study was a Phase 2 Open Label Extension Study (clinical study TR03ext) of the randomized, double-blind, 3-parallel arm, placebo controlled dose ranging study described in Example 2. All those subjects who were randomized, and then completed Example 2 study, were eligible to participate in the Extension Study.
(§2) The primary endpoint was a description of the overall incidence and nature of Treatment-Emergent AEs (TEAES) during weeks 5-50 of the study. Exploratory efficacy endpoints included Change from Baseline patient reported outcome measures of Worst itch NRS, itchy VRS and ItchyQoL, by Treatment Period study visit and Baseline NRS score. There was also an assessment of any potential skin lesion changes over time using the metrics of the PAS.
(§3) Of the 63 patients that were randomized to the study of Example 2, 36 subjects who enrolled into Extension Study entered the Treatment Period of the study and were exposed to nalbuphine HCl ER tablet administration and are the basis of the study safety population analysis.
(§4) Patients in Extension Study were titrated over a dose range of 30 mg QD to 180 mg BID based on tolerability. The selected dose range was based on Example 2 study whereby patients were titrated from a 30 mg QD dose either to 30 mg BID, 60 mg BID, 90 mg BID, 120 mg BID or a 180 mg BID dose. The highest dose proposed was 180 mg BID (360 mg daily dose), and was well below the highest recommended daily treatment of 160 mg IV (equivalent to 960 mg oral) for the current marketed parenteral administered product.
(§5) The study duration for each patient was up to 52 weeks, with up to 50 weeks on study drug. The Extension Study consisted of a Treatment Period (that was followed by a Washout Safety Follow-up Period) and an Observation Period. Patients either entered directly into a drug Treatment Period (NRS >5) or a no-drug Observation Period (NRS ≤5) based on their reported NRS scores on the first Visit (Visit 1a). For up to 12 Extended Screening weeks, patients in the no-drug Observation Period could have also transitioned into the drug Treatment Period if their NRS increased to NRS >5. All patients entering the Treatment Period, whether immediately upon study entry or following a period of time in the Observation Period, were titrated to a dose ranging between 30 mg up to 180 mg BID, the highest dose tested in Example 2.

[2] = test system: prurigo nodularis patients; assay: TR03ext (Example 3), titrated 30 mg QD to 180 mg BID: itchy Verbal Rating Scale (VRS); assay type: in vivo, human; conditions: for VRS Itch Visit Mean (SD): Baseline 2.7 (0.8)
Text: as §1, §2, §3, §4, §5

[3] = Patients With At Least 6 Months of Treatment N = 18
[4] = Patients With At Least 9 Months of Treatment N = 15

Oc1ccc2c3c1OC1[C@@H](O)CC[C@@]4(O)[C@@H](C2)N(CC2CCC2)CC[C@]314 (stereo partly drawn) [Nalbuphine, 17-(cyclobutylmethyl)-4,5α-epoxymorphinian-3, 6α, 14-triol, hydrochloride]
Worst Itch NRS Mean (SD) Change from Baseline ([1]; Study Week 3, N=34): −2.0 (2.2)
Worst Itch NRS Visit Mean (SD) ([1]; Study Week 3, N=34): 5.7 (2.4)
Worst Itch NRS Mean (SD) Change from Baseline ([1]; Study Week 5, N=33): −2.5 (2.2)
Worst Itch NRS Visit Mean (SD) ([1]; Study Week 5, N=33): 5.2 (2.5)
Worst Itch NRS Mean (SD) Change from Baseline ([1]; Study Week 9, N=30): −2.9 (2.2)
Worst Itch NRS Visit Mean (SD) ([1]; Study Week 9, N=30): 4.6 (2.3)
Worst Itch NRS Mean (SD) Change from Baseline ([1]; Study Week 13, N=25): −2.7 (1.8)
Worst Itch NRS Visit Mean (SD) ([1]; Study Week 13, N=25): 4.8 (2.2)
Worst Itch NRS Mean (SD) Change from Baseline ([1]; Study Week 17, N=25): −3.6 (2.6)
Worst Itch NRS Visit Mean (SD) ([1]; Study Week 17, N=25): 3.8 (2.4)
Worst Itch NRS Mean (SD) Change from Baseline ([1]; Study Week 21, N=22): −3.3 (2.4)
Worst Itch NRS Visit Mean (SD) ([1]; Study Week 21, N=22): 4.1 (2.4)
Worst Itch NRS Mean (SD) Change from Baseline ([1]; Study Week 26, N=21): −3.9 (2.2)
Worst Itch NRS Visit Mean (SD) ([1]; Study Week 26, N=21): 3.4 (1.6)
Worst Itch NRS Mean (SD) Change from Baseline ([1]; Study Week 30, N=20): −4.2 (2.3)
Worst Itch NRS Visit Mean (SD) ([1]; Study Week 30, N=20): 3.2 (1.6)
Worst Itch NRS Mean (SD) Change from Baseline ([1]; Study Week 34, N=18): −3.9 (2.1)
Worst Itch NRS Visit Mean (SD) ([1]; Study Week 34, N=18): 3.3 (1.6)
Worst Itch NRS Mean (SD) Change from Baseline ([1]; Study Week 38, N=17): −3.9 (1.7)
Worst Itch NRS Visit Mean (SD) ([1]; Study Week 38, N=17): 3.2 (1.6)
Worst Itch NRS Mean (SD) Change from Baseline ([1]; Study Week 42, N=17): −3.9 (1.4)
Worst Itch NRS Visit Mean (SD) ([1]; Study Week 42, N=17): 3.2 (1.4)
Worst Itch NRS Mean (SD) Change from Baseline ([1]; Study Week 46, N=17): −3.9 (1.3)
Worst Itch NRS Visit Mean (SD) ([1]; Study Week 46, N=17): 3.2 (1.5)
Worst Itch NRS Mean (SD) Change from Baseline ([1]; Study Week 50, N=15): −4.3 (1.3)
Worst Itch NRS Visit Mean (SD) ([1]; Study Week 50, N=15): 2.9 (1.7)
VRS Itch Improvement Category 1 Grade Better, baseline to last observed value, patients (%) ([2]; All Patients N = 36): 16 (44.4%)
VRS Itch Improvement Category 1 Grade Worse, baseline to last observed value, patients (%) ([2]; All Patients N = 36): 0
VRS Itch Improvement Category 2-4 Grades Worse, baseline to last observed value, patients (%) ([2]; All Patients N = 36): 0
VRS Itch Improvement Category 2 Grades Better, baseline to last observed value, patients (%) ([2]; All Patients N = 36): 9 (25.0%)
VRS Itch Improvement Category 3 Grades Better, baseline to last observed value, patients (%) ([2]; All Patients N = 36): 1 (2.8%)
VRS Itch Improvement Category 4 Grades Better, baseline to last observed value, patients (%) ([2]; All Patients N = 36): 0
VRS Itch Improvement Category No Change, baseline to last observed value, patients (%) ([2]; All Patients N = 36): 3 (8.3%)
VRS Itch Improvement Category 1 Grade Better, baseline to last observed value, patients (%) ([2]; Completers N = 14): 5 (35.7%)
VRS Itch Improvement Category 1 Grade Worse, baseline to last observed value, patients (%) ([2]; Completers N = 14): 0
VRS Itch Improvement Category 2-4 Grades Worse, baseline to last observed value, patients (%) ([2]; Completers N = 14): 0
VRS Itch Improvement Category 2 Grades Better, baseline to last observed value, patients (%) ([2]; Completers N = 14): 7 (50.0%)
VRS Itch Improvement Category 3 Grades Better, baseline to last observed value, patients (%) ([2]; Completers N = 14): 0
VRS Itch Improvement Category 4 Grades Better, baseline to last observed value, patients (%) ([2]; Completers N = 14): 0
VRS Itch Improvement Category No Change, baseline to last observed value, patients (%) ([2]; Completers N = 14): 2 (14.3%)
VRS Itch Improvement Category 1 Grade Better, baseline to last observed value, patients (%) [2, 3]: 6 (33.3%)
VRS Itch Improvement Category 1 Grade Worse, baseline to last observed value, patients (%) [2, 3]: 0
VRS Itch Improvement Category 2-4 Grades Worse, baseline to last observed value, patients (%) [2, 3]: 0
VRS Itch Improvement Category 2 Grades Better, baseline to last observed value, patients (%) [2, 3]: 9 (50.0%)
VRS Itch Improvement Category 3 Grades Better, baseline to last observed value, patients (%) [2, 3]: 1 (5.6%)
VRS Itch Improvement Category 4 Grades Better, baseline to last observed value, patients (%) [2, 3]: 0
VRS Itch Improvement Category No Change, baseline to last observed value, patients (%) [2, 3]: 2 (11.1%)
VRS Itch Improvement Category 1 Grade Better, baseline to last observed value, patients (%) [2, 4]: 6 (40.0%)
VRS Itch Improvement Category 1 Grade Worse, baseline to last observed value, patients (%) [2, 4]: 0
VRS Itch Improvement Category 2-4 Grades Worse, baseline to last observed value, patients (%) [2, 4]: 0
VRS Itch Improvement Category 2 Grades Better, baseline to last observed value, patients (%) [2, 4]: 7 (46.7%)
VRS Itch Improvement Category 3 Grades Better, baseline to last observed value, patients (%) [2, 4]: 0
VRS Itch Improvement Category 4 Grades Better, baseline to last observed value, patients (%) [2, 4]: 0
VRS Itch Improvement Category No Change, baseline to last observed value, patients (%) [2, 4]: 2 (13.3%)
VRS Itch Mean (SD) Change from Baseline ([2]; Study Week 3, N=34): −0.6 (0.9)
VRS Itch Visit Mean (SD) ([2]; Study Week 3, N=34): 2.1 (1.1)
VRS Itch Mean (SD) Change from Baseline ([2]; Study Week 5, N=33): −0.9 (1.0)
VRS Itch Visit Mean (SD) ([2]; Study Week 5, N=33): 1.8 (1.0)
VRS Itch Mean (SD) Change from Baseline ([2]; Study Week 9, N=30): −0.9 (0.8)
VRS Itch Visit Mean (SD) ([2]; Study Week 9, N=30): 1.7 (0.9)
VRS Itch Mean (SD) Change from Baseline ([2]; Study Week 13, N=25): −1.1 (0.8)
VRS Itch Visit Mean (SD) ([2]; Study Week 13, N=25): 1.5 (0.8)
VRS Itch Mean (SD) Change from Baseline ([2]; Study Week 17, N=25): −1.2 (1.2)
VRS Itch Visit Mean (SD) ([2]; Study Week 17, N=25): 1.4 (1.0)
VRS Itch Mean (SD) Change from Baseline ([2]; Study Week 21, N=22): −1.2 (0.8)
VRS Itch Visit Mean (SD) ([2]; Study Week 21, N=22): 1.4 (0.7)
VRS Itch Mean (SD) Change from Baseline ([2]; Study Week 26, N=21): −1.2 (0.9)
VRS Itch Visit Mean (SD) ([2]; Study Week 26, N=21): 1.4 (0.9)
VRS Itch Mean (SD) Change from Baseline ([2]; Study Week 30, N=20): −1.5 (0.8)
VRS Itch Visit Mean (SD) ([2]; Study Week 30, N=20): 1.1 (0.8)
VRS Itch Mean (SD) Change from Baseline ([2]; Study Week 34, N=18): −1.2 (0.8)
VRS Itch Visit Mean (SD) ([2]; Study Week 34, N=18): 1.4 (0.6)
VRS Itch Mean (SD) Change from Baseline ([2]; Study Week 38, N=17): −1.2 (0.7)
VRS Itch Visit Mean (SD) ([2]; Study Week 38, N=17): 1.4 (0.6)
VRS Itch Mean (SD) Change from Baseline ([2]; Study Week 42, N=17): −1.4 (0.6)
VRS Itch Visit Mean (SD) ([2]; Study Week 42, N=17): 1.2 (0.6)
VRS Itch Mean (SD) Change from Baseline ([2]; Study Week 46, N=17): −1.4 (0.6)
VRS Itch Visit Mean (SD) ([2]; Study Week 46, N=17): 1.2 (0.7)
VRS Itch Mean (SD) Change from Baseline ([2]; Study Week 50, N=15): −1.5 (0.7)
VRS Itch Visit Mean (SD) ([2]; Study Week 50, N=15): 1.1 (0.6)
